Test results reported in publication PMC7955127, “Preclinical small molecule WEHI-7326 overcomes drug resistance and elicits response in patient-derived xenograft models of human treatment-refractory tumors” (Cell Death & Disease, 2021).

Legend:
[1] = Intravenous pharmacokinetics and tolerability in mice; format: in vivo, male Swiss Outbred mice
Method: Briefly, intravenous pharmacokinetics and systemic exposure of WEHI-7326 were assessed in non-fasted male Swiss Outbred mice. WEHI-7326 was administered via intravenous bolus injection (10 ml/kg dose volume) and blood samples were collected at 1, 2, 5, 15 and 30 min and 1, 2, 4, 7.5 and 24 h post-dose (n = 2 mice per time point). A maximum of two samples were obtained from each mouse, with samples being taken either via submandibular bleed (approximately 120 μl; conscious sampling) or terminal cardiac puncture (0.6 ml; while mice were anaesthetized using inhaled Isoflurane). Once collected, blood samples were centrifuged immediately, supernatant plasma was removed, and stored in −20 °C until analysis by LC-MS
Parameters were calculated with standard calculations: PlasmaCL=DoseIV/AUCIVVSS=AUMCIV/AUCIV*PlasmaCL
With plasma CL = plasma clearance, AUCIV = area under the plasma concentration vs. time profile, VSS = apparent volume of distribution at steady state, AUMCIV = area under the first moment of the plasma concentration versus time profile from time zero to infinity after IV administration.
a Measured physicochemical and solubility data for WEHI-7326. […] Microsomal-predicted EH values are included.

[2] = tested on: PC3; experiment: Cell growth inhibition assay, PC3; format: cell-based; conditions: Homo sapiens, PC-3; PC3, prostate carcinoma; 72 h viability assay, CellTiterGlo; mean of 3 ± SEM; read-out: IC50 (inhibition of cellular proliferation)
Method: (§1) Cells were plated at a density of between 500 to 5000 cells per well for adherent cell lines depending on doubling time, and 15,000 cells per well for lymphoblastic leukemia cell lines, in a 96-well plate in 200 μl of growth media. Plates were incubated overnight at 37 °C before adding the inhibitors. Inhibitors were serially diluted from the stock solutions in complete medium and added to the cells. Incubation in the presence of inhibitors was continued for 72 days. Cell viability was assessed by the AlamarBlue (Invitrogen) or CellTiterBlue/Glo (Promega) method according to manufacturer’s instructions. The curve fits and IC50 values were generated in PRISM (GraphPad, San Diego, CA).

[3] = tested on: CEM dEpoB300; experiment: Cell growth inhibition assay, CEM dEpoB300; format: cell-based; conditions: Homo sapiens; CEM dEpoB300, leukemia (taxane resistant, β-tubulin mutation); 72 h, Alamar Blue; mean of 3 ± SEM; read-out: IC50 (inhibition of cellular proliferation)
Method: as §1
Parental human lymphoblastic leukemia cells (CEM) and their drug resistant derivatives (dEpoB30 and dEpoB300) were cultured in the presence of increasing amounts of WEHI-7326, paclitaxel or epothilone B. Cell survival was determined as described in Experimental Procedures. Shown are mean of 3 experiments +/- SEM. Dose response curves were fitted in PRISM using non-linear regression (4 parameter logistic) to calculate IC50 values.

[4] = Fourteen day maximum tolerated dose study, twice weekly i.v. (non-GLP); format: in vivo
Method: Fourteen day maximum tolerated dose (MTD) study of WEHI-7326 dihydrochloride following twice weekly intravenous administration in female Sprague-Dawley rats. All treatments were administered i.v. (tail vein) in a dosing volume of 10 mL/kg. Treatment was administered in a staggered manner, beginning with WEHI-7326 at 7.5 mg/kg and then increasing the dose on subsequent days. For all data calculations and presentation, the first day of treatment for each group is designated as Day 1. One animal died immediately following a single dose of WEHI-7326 at 60 mg/kg (Group 2). The remaining scheduled treatments at this dose were cancelled and dosing recommenced at a reduced dose of 10 mg/kg to the remaining 3 animals in this group. Intravenous (tail vein) treatment of female Sprague-Dawley rats with WEHI-7326 was tolerated without serious adverse events or body weight loss exceeding the ethical limit at doses of 7.5 and 10 mg/kg in this study.
Sixteen female Sprague-Dawley rats were microchipped and randomised into four groups of four based on body weight two days prior to the first day’s treatment. The test article was to be tested at four dose concentrations of 7.5 mg/kg, 15 mg/kg, 30 mg/kg and 60 mg/kg, administered i.v. via tail vein injection at a dose rate of 10 mL/kg. […] Animals were to be dosed on their respective Study Day 1, then twice weekly over two weeks. Body weights were measured once prior to dose administration, then daily for the duration of the study and at termination. Clinical observations were performed on a daily basis. Due to the immediate death of one animal dosed with WEHI-7326 at 60 mg/kg and subsequent development of signs of toxicity in animals that had received three doses at 15 mg/kg and two doses at 30 mg/kg, the dose level for the remaining three animals in Group 4 was reduced to 10 mg/kg (four doses). As treatment with WEHI-7326 was tolerated without serious adverse events or body weight loss exceeding the ethical limit at doses of 7.5 and 10 mg/kg in this study, the maximum tolerated dose was determined to be 10 mg/kg.

[5] = tested on: LoVo; experiment: Cell growth inhibition assay, LoVo; format: cell-based; conditions: Homo sapiens, colon carcinoma, 72 h viability assay, CellTiterGlo, mean of 3 ± SEM, read-out: IC50 (inhibition of cellular proliferation)
Method: as §1, with “Incubation in the presence of inhibitors was continued for 72 days.” left out

[6] = mouse, plasma, iv, male Swiss outbred mice, i.v. 15 mg/kg
[7] = female rats, 7.5 mg/kg twice weekly i.v.
[8] = female rats, 10 mg/kg twice weekly i.v.
[9] = female rats, 15 mg/kg twice weekly i.v.
[10] = female rats, 30 mg/kg twice weekly i.v.

With `COc1ccc(CNc2nc(NCc3ccc(CN)cc3)nc(NN3CC(=O)NC3=O)n2)cc1` [WEHI-7326] the Adverse reactions ([1]; Swiss outbred mice, i.v., up to a dose of 30 mg/kg) was “no adverse reactions or compound-related side effects”, the clearance [1, 6] was 53 mL/min/kg and the half-life [1, 6] was 6.3 h. The Vd ([1]; mouse, plasma, iv, male Swiss outbred mice, i.v. 15 mg/kg, read-out: Apparent volume of distribution) was 4.7 L/kg, the IC50 [2] was 48.9 ± 11.1 nM and the IC50 [3] was 6.51 ± 0.08 nM. For the same compound, the Lethality ([4]; female Sprague-Dawley rats, 60 mg/kg i.v.) was “acutely lethal”, the “Mild red staining right fore limb (number of animals)” value [4, 7] was 1/4 and the “No remarkable observation (number of animals)” value [4, 7] was 3/4. The “Mild piloerection (number of animals)” value [4, 8] was 3/3, the “Mild red staining of snout, fore limbs and/or head (number of animals)” value [4, 8] was 3/3 and the “Urine-stained fur (number of animals)” value [4, 8] was 1/3. The “Discharge both eyes (number of animals)” value [4, 9] was 1/4, the “Early termination (StudyDay 9) due to adverse clinical signs and excess body weight loss (number of animals)” value [4, 9] was 3/4 and the “Mild red staining of eyes and or head (number of animals)” value [4, 9] was 2/4. The “Mild squinting both eyes (number of animals)” value [4, 9] was 1/4, the “Mild/moderate hunched posture (number of animals)” value [4, 9] was 4/4 and the “Mild/moderate piloerection (number of animals)” value [4, 9] was 4/4. For the same compound, the “Urine-stained fur (number of animals)” value [4, 9] was 1/4, the “Early termination (StudyDay 5) due to adverse clinical signs and excess body weight loss (number of animals)” value [4, 10] was 4/4 and the “Mild excess salivation (number of animals)” value [4, 10] was 2/4. The “Mild piloerection (number of animals)” value [4, 10] was 4/4, the “Mild red staining of limbs, eyes, snout and or head (number of animals)” value [4, 10] was 4/4 and the “Mild squinting both eyes (number of animals)” value [4, 10] was 4/4. The “Mild/moderate hunched posture (number of animals)” value [4, 10] was 4/4, the “Mild/moderate labored breathing (number of animals)” value [4, 10] was 4/4 and the “Mild/moderate lethargy (number of animals)” value [4, 10] was 4/4. The “Urine-stained fur (number of animals)” value [4, 10] was 4/4, the “Found dead immediately after administration (number of animals)” value ([4]; female rats, 60 mg/kg i.v., single dose) was 1/1 and the MTD at 14 days ([4]; rat, in vivo, iv, female Sprague-Dawley rats, twice weekly i.v., 14 day) was 10 mg/kg. For the same compound, the IC50 [5] was 42.2 ± 9.9 nM.
